Source: patent US10087229B2, “Peptide compound” (TAKEDA PHARMACEUTICAL COMPANY LIMITED, priority 2013, dated 2018)
Square brackets hold non-standard residues; d marks the D form. Peptide text beside a SMILES is read from it. αMeF = C[C@](N)(Cc1ccccc1)C(=O)O; Cha = N[C@@H](CC1CCCCC1)C(=O)O; Aib = CC(C)(N)C(=O)O

How the values were obtained:
male C57BL/6J mouse = assay: 2-days continuous subcutaneous administration test (feeding suppressive activity); type: in vivo; conditions: 10 nmol/kg/day, subcutaneous Alzet pump, 2-days cumulative food consumption, control (solvent alone) = 0%
Description: 2-Days Continuous Subcutaneous Administration Test
The feeding suppressive activity of a test compound was examined by the method described below.
The test compound was dissolved in a solvent (50% DMSO) so that sustained release would occur at 10 nmol/kg/day, and the solution was filled in the Alzet Pump (DURECT Corporation, model: 1003D). The pump thus filled with the solution to be administered was immersed in physiological saline for priming, and then used. The pump was embedded by the following method. Each male C57BL/6J mouse at 8-9 weeks of age (20-26° C., allowed to take food and water ad libitum; 12-hour bright-12-hour dark cycle) was anesthetized; the skin in the upper back thereof was incised, and the above-mentioned pump was embedded subcutaneously; the incision was sutured. After weighing, this mouse was returned to the rearing cage (reared alone), and given previously weighed food; food consumption as of 2 days after the start of administration was measured. The food consumption was calculated by subtracting the amount of remaining food from the weight of the food given on the day of the start of administration. When the food consumption of a control group receiving administration of the solvent alone was regarded as a suppression rate of 0%, the feeding suppressive activity of each test compound was evaluated on the basis of 2-days cumulative food consumption after the start of administration. The food intake suppression rate (%) of the test compound was defined as (Food consumption of the control group−Food consumption of the test compound-administered group)/Food consumption of the control group×100.

[1] = system: Diet-induced obesity (DIO) male C57BL/6J mice; assay: 2-weeks continuous subcutaneous administration study in DIO mice (anti-obesity activity); type: in vivo, mouse; conditions: 1 nmol/kg/day, subcutaneous Alzet pump, 2 weeks after start of administration; rate of weight loss, control group regarded as 0%
Description: 2-Weeks Continuous Subcutaneous Administration Study in DIO Mice
The anti-obesity activity of a test compound was examined by the method described below.
Diet-induced obesity (DIO) mice were prepared by feeding male C57BL/6J mice with high-fat diet (D12451: Research Diets, Inc.). The test compound was dissolved in a solvent (50% DMSO) so that sustained release would occur at 1 nmol/kg/day, and the solution was filled in the Alzet Pump (DURECT Corporation, model: 1002). The pump thus filled with the solution to be administered was immersed in physiological saline for priming, and then used. The pump was embedded by the following method. Each male DIO-C57BL/6J mouse at 35-37 weeks of age (20-26° C., allowed to take food and water ad libitum; 12-hour bright-12-hour dark cycle) was anesthetized; the skin in the upper back thereof was incised, and the above-mentioned pump was embedded subcutaneously; the incision was sutured. After weighing, this mouse was returned to the rearing cage (reared alone), and given previously weighed food; the body weight was measured every 1 to 3 days after the start of administration. The anti-obesity activity of each test compound was evaluated on the basis of the rate of weight loss 2 weeks after the start of administration, with the rate of weight loss in a control group receiving administration of the solvent alone regarded as 0%.

| SMILES | Food intake suppression (%) (male C57BL/6J mouse) | Change in body weight [1] |
| --- | --- | --- |
| CC(C)C[C@H](NC(=O)[C@H](CC(C)C)NC(=O)[C@H](Cc1c[nH]c2ccccc12)NC(=O)[C@H](CCCCN)NC(=O)[C@@H](NC(=O)[C@H](Cc1ccccc1)NC(=O)[C@H](CCC(=O)O)NC(=O)[C@H](CCC(N)=O)NC(=O)[C@H](CCC(N)=O)NC(=O)[C@H](C)NC(=O)[C@H](CCC(N)=O)NC(=O)[C@H](CCCCN)NC(=O)[C@H](CC(=O)O)NC(=O)[C@H](CC(C)C)NC(=O)[C@H](Cc1ccc(O)cc1)NC(=O)[C@H](CCCCN)NC(=O)C(C)(C)NC(=O)[C@H](Cc1ccc(O)cc1)NC(=O)[C@H](CC(=O)O)NC(=O)[C@H](CO)NC(=O)[C@@H](NC(=O)[C@](C)(Cc1ccccc1)NC(=O)[C@@H](NC(=O)CNC(=O)[C@H](CCC(=O)O)NC(=O)C(C)(C)NC(=O)[C@@H](N)Cc1ccc(O)cc1)[C@@H](C)O)[C@@H](C)O)C(C)C)C(=O)N[C@@H](CCCCN)C(=O)NCC(=O)NCC(=O)N1CCC[C@H]1C(=O)N[C@@H](CO)C(=O)N[C@@H](CO)C(=O)NCC(=O)N[C@@H](C)C(=O)N1CCC[C@H]1C(=O)N1CCC[C@H]1C(=O)N1CCC[C@H]1C(=O)N[C@@H](CO)C(N)=O [Example 26] (H-Y[Aib]EGT[αMeF]TSDY[Aib]KYLDKQAQQEFVKWLLKGGPSSGAPPPS-NH2) | 53.06 | −16.2 |
| CC[C@H](C)[C@H](NC(=O)C(C)(C)NC(=O)[C@H](Cc1ccc(O)cc1)NC(=O)[C@H](CC(=O)O)NC(=O)[C@H](CO)NC(=O)[C@@H](NC(=O)[C@](C)(Cc1ccccc1)NC(=O)[C@@H](NC(=O)CNC(=O)[C@H](CCC(=O)O)NC(=O)C(C)(C)NC(=O)[C@@H](N)Cc1ccc(O)cc1)[C@@H](C)O)[C@@H](C)O)C(=O)NC(C)(C)C(=O)N[C@@H](CC(C)C)C(=O)N[C@@H](CC(=O)O)C(=O)N[C@@H](CCCCN)C(=O)N[C@@H](CCC(N)=O)C(=O)N[C@@H](C)C(=O)N[C@@H](CCC(N)=O)C(=O)N[C@@H](C)C(=O)N[C@@H](CCC(=O)O)C(=O)N[C@@H](Cc1ccccc1)C(=O)N[C@H](C(=O)N[C@@H](CCCCN)C(=O)N[C@@H](Cc1c[nH]c2ccccc12)C(=O)N[C@@H](CC(C)C)C(=O)N[C@@H](CC(C)C)C(=O)N[C@@H](CCCCN)C(=O)NCC(=O)NCC(=O)N1CCC[C@H]1C(=O)N[C@@H](CO)C(=O)N[C@@H](CO)C(=O)NCC(=O)N[C@@H](C)C(=O)N1CCC[C@H]1C(=O)N1CCC[C@H]1C(=O)N1CCC[C@H]1C(=O)N[C@@H](CO)C(=O)N[C@@H](CCCCN)C(N)=O)C(C)C [Example 2] (H-Y[Aib]EGT[αMeF]TSDY[Aib]I[Aib]LDKQAQAEFVKWLLKGGPSSGAPPPSK-NH2) | 64.80 | −16.3 |
| CC(C)C[C@H](NC(=O)[C@H](CC(C)C)NC(=O)[C@H](Cc1c[nH]c2ccccc12)NC(=O)[C@H](CCCCN)NC(=O)[C@@H](NC(=O)[C@H](Cc1ccccc1)NC(=O)[C@H](CCC(=O)O)NC(=O)[C@H](CCC(N)=O)NC(=O)[C@H](CCC(N)=O)NC(=O)[C@H](C)NC(=O)[C@H](CCC(N)=O)NC(=O)[C@H](CCCCN)NC(=O)[C@H](CC(=O)O)NC(=O)[C@H](CC(C)C)NC(=O)[C@H](Cc1ccc(O)cc1)NC(=O)[C@H](CCCCN)NC(=O)C(C)(C)NC(=O)[C@H](Cc1ccc(O)cc1)NC(=O)[C@H](CC(=O)O)NC(=O)[C@H](CO)NC(=O)[C@@H](NC(=O)[C@](C)(Cc1ccccc1)NC(=O)[C@@H](NC(=O)CNC(=O)[C@H](CCC(=O)O)NC(=O)C(C)(C)NC(=O)[C@@H](N)Cc1ccc(O)cc1)[C@@H](C)O)[C@@H](C)O)C(C)C)C(=O)N[C@@H](CCCCN)C(=O)NCC(=O)NCC(=O)N1CCC[C@H]1C(=O)N[C@@H](CO)C(=O)N[C@@H](CO)C(=O)NCC(=O)N[C@@H](C)C(=O)N1CCC[C@H]1C(=O)N1CCC[C@H]1C(=O)N1CCC[C@H]1C(=O)N[C@@H](CO)C(=O)N[C@@H](CCCCN)C(N)=O [Example 25] (H-Y[Aib]EGT[αMeF]TSDY[Aib]KYLDKQAQQEFVKWLLKGGPSSGAPPPSK-NH2) | 53.12 | −11.2 |
| CC[C@H](C)[C@H](NC(=O)C(C)(C)NC(=O)[C@H](Cc1ccc(O)cc1)NC(=O)[C@H](CC(=O)O)NC(=O)[C@H](CO)NC(=O)[C@@H](NC(=O)[C@](C)(Cc1ccccc1)NC(=O)[C@@H](NC(=O)CNC(=O)[C@H](CCC(=O)O)NC(=O)C(C)(C)NC(=O)[C@@H](N)Cc1ccc(O)cc1)[C@@H](C)O)[C@@H](C)O)C(=O)NC(C)(C)C(=O)N[C@@H](CC(C)C)C(=O)N[C@@H](CC(=O)O)C(=O)N[C@@H](CCCCN)C(=O)N[C@@H](CCC(N)=O)C(=O)N[C@@H](C)C(=O)N[C@@H](CCC(N)=O)C(=O)N[C@@H](C)C(=O)N[C@@H](CCC(=O)O)C(=O)N[C@@H](Cc1ccccc1)C(=O)N[C@H](C(=O)N[C@@H](CCCCN)C(=O)N[C@@H](Cc1c[nH]c2ccccc12)C(=O)N[C@@H](CC(C)C)C(=O)N[C@@H](CC(C)C)C(=O)N[C@@H](CCCCN)C(=O)NCC(=O)NCC(=O)N1CCC[C@H]1C(=O)N[C@@H](CO)C(=O)N[C@@H](CO)C(=O)NCC(=O)N[C@@H](C)C(=O)N1CCC[C@H]1C(=O)N1CCC[C@H]1C(=O)N1CCC[C@H]1C(=O)N[C@@H](CO)C(N)=O)C(C)C [Example 6] (H-Y[Aib]EGT[αMeF]TSDY[Aib]I[Aib]LDKQAQAEFVKWLLKGGPSSGAPPPS-NH2) | 65.20 |  |
| CC(C)C[C@H](NC(=O)[C@H](CC(C)C)NC(=O)[C@H](Cc1c[nH]c2ccccc12)NC(=O)[C@H](CCCCN)NC(=O)[C@@H](NC(=O)[C@H](Cc1ccccc1)NC(=O)[C@H](CCC(=O)O)NC(=O)[C@H](C)NC(=O)[C@H](CCC(N)=O)NC(=O)[C@H](C)NC(=O)[C@H](CCC(N)=O)NC(=O)[C@H](CCCCN)NC(=O)[C@H](CC(=O)O)NC(=O)[C@H](CC(C)C)NC(=O)[C@H](CC1CCCCC1)NC(=O)[C@H](CCCCN)NC(=O)C(C)(C)NC(=O)[C@H](Cc1ccc(O)cc1)NC(=O)[C@H](CC(=O)O)NC(=O)[C@H](CO)NC(=O)[C@@H](NC(=O)[C@](C)(Cc1ccccc1)NC(=O)[C@@H](NC(=O)CNC(=O)[C@H](CCC(=O)O)NC(=O)C(C)(C)NC(=O)[C@@H](N)Cc1ccc(O)cc1)[C@@H](C)O)[C@@H](C)O)C(C)C)C(=O)N[C@@H](CCCCN)C(=O)NCC(=O)NCC(=O)N1CCC[C@H]1C(=O)N[C@@H](CO)C(=O)N[C@@H](CO)C(=O)NCC(=O)N[C@@H](C)C(=O)N1CCC[C@H]1C(=O)N1CCC[C@H]1C(=O)N1CCC[C@H]1C(=O)N[C@@H](CO)C(=O)N[C@@H](CCCCN)C(N)=O [Example 16] (H-Y[Aib]EGT[αMeF]TSDY[Aib]K[Cha]LDKQAQAEFVKWLLKGGPSSGAPPPSK-NH2) | 54.24 |  |
| CC(C)C[C@H](NC(=O)[C@H](CC(C)C)NC(=O)[C@H](Cc1c[nH]c2ccccc12)NC(=O)[C@H](CCCCN)NC(=O)[C@@H](NC(=O)[C@H](Cc1ccccc1)NC(=O)[C@H](CCC(=O)O)NC(=O)[C@H](C)NC(=O)[C@H](CCC(N)=O)NC(=O)[C@H](C)NC(=O)[C@H](CCC(N)=O)NC(=O)[C@H](CCCCN)NC(=O)[C@H](CC(=O)O)NC(=O)[C@H](CC(C)C)NC(=O)C(C)(C)NC(=O)[C@H](Cc1ccccc1)NC(=O)C(C)(C)NC(=O)[C@H](Cc1ccc(O)cc1)NC(=O)[C@H](CC(=O)O)NC(=O)[C@H](CO)NC(=O)[C@@H](NC(=O)[C@](C)(Cc1ccccc1)NC(=O)[C@@H](NC(=O)CNC(=O)[C@H](CCC(=O)O)NC(=O)C(C)(C)NC(=O)[C@@H](N)Cc1ccc(O)cc1)[C@@H](C)O)[C@@H](C)O)C(C)C)C(=O)N[C@@H](CCCCN)C(=O)NCC(=O)NCC(=O)N1CCC[C@H]1C(=O)N[C@@H](CO)C(=O)N[C@@H](CO)C(=O)NCC(=O)N[C@@H](C)C(=O)N1CCC[C@H]1C(=O)N1CCC[C@H]1C(=O)N1CCC[C@H]1C(=O)N[C@@H](CO)C(=O)N[C@@H](CCCCN)C(N)=O [Example 11] (H-Y[Aib]EGT[αMeF]TSDY[Aib]F[Aib]LDKQAQAEFVKWLLKGGPSSGAPPPSK-NH2) | 49.99 |  |
